Measurements as given in US7851474B2, “Dipiperazinyl ketones and related analogues” (Neurogen Corporation, priority 2005, dated 2010).

biological target: T1, chimeric human H3 receptor (Homo sapiens, UniProt Q9Y5N1, E19D); assay: Chimeric human H3 receptor GTP binding assay (agonist-stimulated GTP-gamma35S binding, Example 7); type: biochemical; conditions: not given
T1 construct: made in house; host or cells: Sf9 insect cells (baculovirus infection); P2 membrane preparation
Summary of the method: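 IC50 values come from non-linear regression of dose-response curves of filter-bound GTP-gamma^35S, counted by scintillation. Membranes were from infected Sf9 cells carrying receptor plus G-protein subunits, 35 μg/tube, with 10 μM GDP present.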

T1 sequence (Q9Y5N1 with tags, fused parts or gaps E19D): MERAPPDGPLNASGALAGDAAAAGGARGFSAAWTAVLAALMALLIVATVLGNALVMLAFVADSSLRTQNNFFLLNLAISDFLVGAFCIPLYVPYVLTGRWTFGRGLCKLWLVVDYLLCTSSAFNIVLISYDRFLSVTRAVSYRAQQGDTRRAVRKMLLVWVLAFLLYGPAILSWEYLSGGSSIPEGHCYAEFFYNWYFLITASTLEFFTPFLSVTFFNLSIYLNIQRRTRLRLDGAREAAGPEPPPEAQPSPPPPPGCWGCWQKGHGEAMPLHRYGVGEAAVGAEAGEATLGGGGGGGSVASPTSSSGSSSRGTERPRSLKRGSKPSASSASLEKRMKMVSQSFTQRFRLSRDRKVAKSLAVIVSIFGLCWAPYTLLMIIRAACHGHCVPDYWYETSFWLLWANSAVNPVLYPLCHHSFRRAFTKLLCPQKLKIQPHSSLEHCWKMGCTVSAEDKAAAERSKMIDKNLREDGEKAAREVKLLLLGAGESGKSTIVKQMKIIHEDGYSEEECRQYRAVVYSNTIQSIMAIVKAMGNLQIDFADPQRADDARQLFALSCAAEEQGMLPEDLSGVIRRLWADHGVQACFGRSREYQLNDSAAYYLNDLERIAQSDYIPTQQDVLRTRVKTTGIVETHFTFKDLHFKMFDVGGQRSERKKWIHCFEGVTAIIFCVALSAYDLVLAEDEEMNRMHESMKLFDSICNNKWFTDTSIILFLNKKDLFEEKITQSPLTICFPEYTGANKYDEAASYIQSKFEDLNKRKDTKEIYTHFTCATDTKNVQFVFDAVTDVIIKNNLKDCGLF

Row | Compound | Ki
1 | CC(=O)C1(c2ccccc2)CCN(CC(=O)N2CCN(C3CCC3)CC2)CC1 [Compound 478, 1-{1-[2-(4-cyclobutylpiperazin-1-yl)-2-oxoethyl]-4-phenylpiperidin-4-yl}ethanone] | < 1000 nM
2 | C=CCN1CCN(C(=O)CN2CCN(c3ccc(C(F)(F)F)cc3)CC2)CC1 [Compound 487, 1-allyl-4-({4-[4-(trifluoromethyl)phenyl]piperazin-1-yl}acetyl)piperazine] | < 1000 nM
3 | CCCCN1CCN(C(=O)CN2CCN(c3ccc(C(F)(F)F)cc3)CC2)CC1 [Compound 496, 1-butyl-4-({4-[4-(trifluoromethyl)phenyl]piperazin-1-yl}acetyl)piperazine] | < 1000 nM
4 | O=C(CN1CCN(c2cccc(C(F)(F)F)c2)CC1)N1CCN(C2CCC2)CC1 [Compound 590, 1-cyclobutyl-4-({4-[3-(trifluoromethyl)phenyl]piperazin-1-yl}acetyl)piperazine] | < 1000 nM

same assay, conditions: "*" in Ki of Table II; assay of Example 7; read-out: Ki

Row | Compound | Ki
5 | O=C(CN1CCN(c2ccc(Cl)c(C(F)(F)F)c2)CC1)N1CCN(C2CCC2)CC1 [Compound 464, 1-[4-chloro-3-(trifluoromethyl)phenyl]-4-[2-(4-cyclobutylpiperazin-1-yl)-2-oxoethyl]piperazine] | < 1000 nM
6 | O=C(CN1CCN(c2ccc(Cl)c(C(F)(F)F)c2)CC1)N1CCN(C2CCCC2)CC1 [Compound 466, 1-[4-chloro-3-(trifluoromethyl)phenyl]-4-[2-(4-cyclopentylpiperazin-1-yl)-2-oxoethyl]piperazine] | < 1000 nM
7 | CC(C)N1CCN(C(=O)CN2CCN(c3ccc(Cl)c(C(F)(F)F)c3)CC2)CC1 [Compound 467, 1-[4-chloro-3-(trifluoromethyl)phenyl]-4-[2-(4-isopropylpiperazin-1-yl)-2-oxoethyl]piperazine] | < 1000 nM
8 | CC(C)N1CCN(C(=O)CN2CCN(c3ccc(F)c(C(F)(F)F)c3)CC2)CC1 [Compound 468, 1-[4-fluoro-3-(trifluoromethyl)phenyl]-4-[2-(4-isopropylpiperazin-1-yl)-2-oxoethyl]piperazine] | < 1000 nM
9 | O=C(CN1CCC(N2CCCCCC2)CC1)N1CCN(C2CCC2)CC1 [Compound 479, 1-{1-[2-(4-cyclobutylpiperazin-1-yl)-2-oxoethyl]piperidin-4-yl}azepane] | < 1000 nM
10 | O=C(CN1CCC(N2CCCCCC2)CC1)N1CCN(C2CCCCC2)CC1 [Compound 480, 1-{1-[2-(4-cyclohexylpiperazin-1-yl)-2-oxoethyl]piperidin-4-yl}azepane] | < 1000 nM
11 | CCC(C)N1CCN(C(=O)CN2CCC(N3CCCCCC3)CC2)CC1 (stereo not drawn) [Compound 481, 1-{1-[2-(4-sec-butylpiperazin-1-yl)-2-oxoethyl]piperidin-4-yl}azepane] | < 1000 nM
12 | CC(=O)N1CCN(CC(=O)N2CCN(C3CCC3)CC2)CC1 [Compound 483, 1-acetyl-4-[2-(4-cyclobutylpiperazin-1-yl)-2-oxoethyl]piperazine] | < 1000 nM
13 | CC(=O)N1CCN(CC(=O)N2CCN(C3CCCCC3)CC2)CC1 [Compound 484, 1-acetyl-4-[2-(4-cyclohexylpiperazin-1-yl)-2-oxoethyl]piperazine] | < 1000 nM
14 | CC(=O)N1CCN(CC(=O)N2CCN(C3CCCC3)CC2)CC1 [Compound 485, 1-acetyl-4-[2-(4-cyclopentylpiperazin-1-yl)-2-oxoethyl]piperazine] | < 1000 nM
15 | O=C(N1CCN(C2CCC2)CC1)N1CCC2(CC1)C(=O)N(Cc1ccccc1)c1ccccc12 [Compound 488, 1-benzyl-1′-[(4-cyclobutylpiperazin-1-yl)carbonyl]spiro[indole-3,4′-piperidin]-2(1H)-one] | < 1000 nM
16 | O=C(N1CCN(C2CCCC2)CC1)N1CCC2(CC1)C(=O)N(Cc1ccccc1)c1ccccc12 [Compound 489, 1-benzyl-1′-[(4-cyclopentylpiperazin-1-yl)carbonyl]spiro[indole-3,4′-piperidin]-2(1H)-one] | < 1000 nM
17 | O=C(CN1CCC2(CC1)CN(Cc1ccccc1)c1cccnc12)N1CCN(C2CCC2)CC1 [Compound 490, 1′-benzyl-1-[2-(4-cyclobutylpiperazin-1-yl)-2-oxoethyl]-1′,2′-dihydrospiro[piperidine-4,3′-pyrrolo[3,2-b]pyridine]] | < 1000 nM
18 | O=C(CN1CCC2(CC1)C(=O)N(Cc1ccccc1)c1cccnc12)N1CCN(C2CCC2)CC1 [Compound 492, 1′-benzyl-1-[2-(4-cyclobutylpiperazin-1-yl)-2-oxoethyl]spiro[piperidine-4,3′-pyrrolo[3,2-b]pyridin]-2′(1′H)-one] | < 1000 nM
19 | O=C(CN1CCN(c2cccc(-c3ccccc3)c2)CC1)N1CCN(C2CCC2)CC1 [Compound 493, 1-biphenyl-3-yl-4-[2-(4-cyclobutylpiperazin-1-yl)-2-oxoethyl]piperazine] | < 1000 nM
20 | O=C(CN1CCN(c2ccc(-c3ccccc3)cc2)CC1)N1CCN(C2CCC2)CC1 [Compound 494, 1-biphenyl-4-yl-4-[2-(4-cyclobutylpiperazin-1-yl)-2-oxoethyl]piperazine] | < 1000 nM
21 | O=C(Cc1c(Cl)ccc(Cl)c1Cl)N1CCN(CC(=O)N2CCN(C3CCC3)CC2)CC1 [Compound 501, 1-cyclobutyl-4-({4-[(2,3,6-trichlorophenyl)acetyl]piperazin-1-yl}acetyl)piperazine] | < 1000 nM
22 | COc1ccc(CC(=O)N2CCN(CC(=O)N3CCN(C4CCC4)CC3)CC2)c(OC)c1 [Compound 507, 1-cyclobutyl-4-({4-[(2,4-dimethoxyphenyl)acetyl]piperazin-1-yl}acetyl)piperazine] | < 1000 nM
23 | COc1ccc(OC)c(CC(=O)N2CCN(CC(=O)N3CCN(C4CCC4)CC3)CC2)c1 [Compound 509, 1-cyclobutyl-4-({4-[(2,5-dimethoxyphenyl)acetyl]piperazin-1-yl}acetyl)piperazine] | < 1000 nM
24 | O=C(Cc1c(Cl)cccc1Cl)N1CCN(CC(=O)N2CCN(C3CCC3)CC2)CC1 [Compound 511, 1-cyclobutyl-4-({4-[(2,6-dichlorophenyl)acetyl]piperazin-1-yl}acetyl)piperazine] | < 1000 nM
25 | COc1ccccc1CC(=O)N1CCN(CC(=O)N2CCN(C3CCC3)CC2)CC1 [Compound 536, 1-cyclobutyl-4-({4-[(2-methoxyphenyl)acetyl]piperazin-1-yl}acetyl)piperazine] | < 1000 nM
26 | O=C(Cc1ccccc1Oc1ccccc1)N1CCN(CC(=O)N2CCN(C3CCC3)CC2)CC1 [Compound 541, 1-cyclobutyl-4-({4-[(2-phenoxyphenyl)acetyl]piperazin-1-yl}acetyl)piperazine] | < 1000 nM
27 | Cc1cccc(OC(C)C(=O)N2CCN(CC(=O)N3CCN(C4CCC4)CC3)CC2)c1C (stereo not drawn) [Compound 571, 1-cyclobutyl-4-({4-[2-(2,3-dimethylphenoxy)propanoyl]piperazin-1-yl}acetyl)piperazine] | < 1000 nM
28 | Cc1ccccc1OC(C)C(=O)N1CCN(CC(=O)N2CCN(C3CCC3)CC2)CC1 (stereo not drawn) [Compound 573, 1-cyclobutyl-4-({4-[2-(2-methylphenoxy)propanoyl]piperazin-1-yl}acetyl)piperazine] | < 1000 nM

same assay, conditions: Table II, "*" in Ki; assay of Example 7; read-out: Ki

Row | Compound | Ki
29 | O=C(CN1CCN(c2ccc(-c3ccccc3C(F)(F)F)cc2)CC1)N1CCN(C2CCC2)CC1 [Compound 580, 1-cyclobutyl-4-({4-[2′-(trifluoromethyl)biphenyl-4-yl]piperazin-1-yl}acetyl)piperazine] | < 1000 nM
30 | CS(=O)(=O)c1ccc(N2CCN(CC(=O)N3CCN(C4CCC4)CC3)CC2)c(F)c1 [Compound 581, 1-cyclobutyl-4-({4-[2-fluoro-4-(methylsulfonyl)phenyl]piperazin-1-yl}acetyl)piperazine] | < 1000 nM
31 | O=C(CN1CCN(c2cccc(C(=O)N3CC=CCC3)c2)CC1)N1CCN(C2CCC2)CC1 [Compound 583] | < 1000 nM
32 | CSc1cccc(-c2ccc(N3CCN(CC(=O)N4CCN(C5CCC5)CC4)CC3)cc2)c1 [Compound 584, 1-cyclobutyl-4-({4-[3′-(methylthio)biphenyl-4-yl]piperazin-1-yl}acetyl)piperazine] | < 1000 nM
33 | O=C(CN1CCN(c2cccc(C(=O)N3CCCCC3)c2)CC1)N1CCN(C2CCC2)CC1 [Compound 585, 1-cyclobutyl-4-({4-[3-(piperidin-1-ylcarbonyl)phenyl]piperazin-1-yl}acetyl)piperazine] | < 1000 nM
34 | O=C(CN1CCN(c2cccc(C(=O)N3CCCC3)c2)CC1)N1CCN(C2CCC2)CC1 [Compound 586, 1-cyclobutyl-4-({4-[3-(pyrrolidin-1-ylcarbonyl)phenyl]piperazin-1-yl}acetyl)piperazine] | < 1000 nM
35 | O=C(CN1CCN(c2ccc(-c3cccc(OC(F)(F)F)c3)cc2)CC1)N1CCN(C2CCC2)CC1 [Compound 587, 1-cyclobutyl-4-({4-[3′-(trifluoromethoxy)biphenyl-4-yl]piperazin-1-yl}acetyl)piperazine] | < 1000 nM
36 | O=C(CN1CCN(c2ccc(-c3cccc(C(F)(F)F)c3)cc2)CC1)N1CCN(C2CCC2)CC1 [Compound 589, 1-cyclobutyl-4-({4-[3′-(trifluoromethyl)biphenyl-4-yl]piperazin-1-yl}acetyl)piperazine] | < 1000 nM
37 | O=C(CN1CCN(c2ccc(-c3ccc4c(c3)OCCO4)cc2)CC1)N1CCN(C2CCC2)CC1 [Compound 592, 1-cyclobutyl-4-({4-[4-(2,3-dihydro-1,4-benzodioxin-6-yl)phenyl]piperazin-1-yl}acetyl)piperazine] | < 1000 nM
38 | O=C(CN1CCN(c2ccc(C(=O)N3CC=CCC3)cc2)CC1)N1CCN(C2CCC2)CC1 [Compound 593, 1-cyclobutyl-4-({4-[4-(3,6-dihydropyridin-1(2H)-ylcarbonyl)phenyl]piperazin-1-yl}acetyl)piperazine] | < 1000 nM
39 | Cc1noc(-c2ccc(N3CCN(CC(=O)N4CCN(C5CCC5)CC4)CC3)cc2)n1 [Compound 594, 1-cyclobutyl-4-({4-[4-(3-methyl-1,2,4-oxadiazol-5-yl)phenyl]piperazin-1-yl}acetyl)piperazine] | < 1000 nM
